Measured values as given in ChEMBL document CHEMBL6109084 (Eur J Med Chem, 2025).
The source made the active and inactive calls. The rule behind the calls is not given here.

What was measured:
Mus musculus [1] = assay: In vivo inhibition of FXIa in FeCl3-induced carotid arterial thrombosis C57BL/6J mouse model assessed as decrease in FXIa level in plasma at 5 to 30 mg/kg, po measured after 0.5 hrs by ELISA; assay type: functional, organism-based; settings: dose 5-30 mg/kg
HK-2 = assay: Cytotoxicity against human HK-2 cells assessed as reduction in cell viability at 1 to 50 uM incubated for 24 hrs by MTT assay; assay type: toxicity, cell-based; settings: hk-2, 24 h, dose 1-50 µM
Mus musculus [2] = assay: Antithrombotic activity in FeCl3-induced carotid arterial thrombosis C57BL/6J mouse model assessed as increase in blood flow velocity at 10 mg/kg, po measured after 2 to 4 hrs; assay type: functional, organism-based; settings: time 2-4 hrs
Plasminogen = Plasminogen (Homo sapiens, UniProt P00747); assay: Inhibition of plasmin (unknown origin) using PyroGlu-Phe-Lys-pNA.HCl as substrate incubated for 30 mins followed by substrate addition and measured after 60 mins by microplate reader analysis
Sequence of Plasminogen (P00747 97-580 limits assumed): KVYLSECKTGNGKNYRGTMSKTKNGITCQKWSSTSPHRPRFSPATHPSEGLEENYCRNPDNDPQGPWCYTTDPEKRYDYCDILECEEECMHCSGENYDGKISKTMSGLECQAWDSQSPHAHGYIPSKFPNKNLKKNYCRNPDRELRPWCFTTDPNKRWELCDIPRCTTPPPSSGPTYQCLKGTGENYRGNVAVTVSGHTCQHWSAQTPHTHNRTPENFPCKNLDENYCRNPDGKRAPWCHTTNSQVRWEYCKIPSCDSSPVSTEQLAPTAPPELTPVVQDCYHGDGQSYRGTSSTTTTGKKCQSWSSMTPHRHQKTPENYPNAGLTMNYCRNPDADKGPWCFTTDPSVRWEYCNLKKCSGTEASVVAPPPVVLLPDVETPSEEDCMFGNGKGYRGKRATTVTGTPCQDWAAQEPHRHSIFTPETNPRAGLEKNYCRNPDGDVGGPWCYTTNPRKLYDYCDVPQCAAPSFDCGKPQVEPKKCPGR
Sequence of Plasminogen (P00747 581-810 limits assumed): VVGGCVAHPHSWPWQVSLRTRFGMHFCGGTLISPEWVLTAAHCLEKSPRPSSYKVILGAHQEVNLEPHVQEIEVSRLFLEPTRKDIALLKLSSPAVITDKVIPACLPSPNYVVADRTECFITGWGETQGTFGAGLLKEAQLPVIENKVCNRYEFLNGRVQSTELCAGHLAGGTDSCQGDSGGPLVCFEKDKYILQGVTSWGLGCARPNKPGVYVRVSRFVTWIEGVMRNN

[3] = Acute toxicity in C57BL/6J mouse assessed as effect on serum ALP level at 60 to 100 mg/kg, po administered as single dose for 14 days; assay type: organism-based; settings: in vivo, 336 h, dose 60-100 mg/kg, time 14 day
[4] = Acute toxicity in C57BL/6J mouse assessed as pathological changes in spleen at 60 to 100 mg/kg, po administered as single dose for 14 days by H and E staining based analysis; assay type: organism-based; settings: in vivo, 336 h, dose 60-100 mg/kg, time 14 day
Coagulation factor X = Coagulation factor X (Homo sapiens, UniProt P00742); assay: Inhibition of FXa (unknown origin) using Z-D-Arg-Gly-Arg-pNA.2HCl as substrate incubated for 30 mins followed by substrate addition and measured after 60 mins by microplate reader analysis
Sequence of Coagulation factor X (P00742 41-179 limits assumed): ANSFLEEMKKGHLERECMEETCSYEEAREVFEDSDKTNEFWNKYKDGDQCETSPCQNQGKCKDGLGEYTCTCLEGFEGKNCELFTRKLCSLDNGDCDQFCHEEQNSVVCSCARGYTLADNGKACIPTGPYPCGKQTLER
Sequence of Coagulation factor X (P00742 235-488 limits assumed): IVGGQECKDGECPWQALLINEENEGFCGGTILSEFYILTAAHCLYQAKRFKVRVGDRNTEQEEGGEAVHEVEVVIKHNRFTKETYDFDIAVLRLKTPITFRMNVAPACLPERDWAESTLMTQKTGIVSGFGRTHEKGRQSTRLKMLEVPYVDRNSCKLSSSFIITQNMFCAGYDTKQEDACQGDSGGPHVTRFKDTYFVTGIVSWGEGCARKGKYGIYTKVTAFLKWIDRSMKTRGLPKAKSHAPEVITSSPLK

[5] = Cytotoxicity against human AC16 [Human hybrid] cells assessed as reduction in cell viability at 1 to 50 uM incubated for 24 hrs by MTT assay; assay type: toxicity, cell-based; settings: dose 1-50 µM
Coagulation factor XI = Coagulation factor XI (Homo sapiens, UniProt P03951); assay: Inhibition of human FXIa using p-Glu-Pro-Arg-pNA.HCl as substrate incubated for 30 mins followed by substrate addition and measured after 60 mins by microplate reader analysis
Sequence of Coagulation factor XI (P03951 19-387 limits assumed): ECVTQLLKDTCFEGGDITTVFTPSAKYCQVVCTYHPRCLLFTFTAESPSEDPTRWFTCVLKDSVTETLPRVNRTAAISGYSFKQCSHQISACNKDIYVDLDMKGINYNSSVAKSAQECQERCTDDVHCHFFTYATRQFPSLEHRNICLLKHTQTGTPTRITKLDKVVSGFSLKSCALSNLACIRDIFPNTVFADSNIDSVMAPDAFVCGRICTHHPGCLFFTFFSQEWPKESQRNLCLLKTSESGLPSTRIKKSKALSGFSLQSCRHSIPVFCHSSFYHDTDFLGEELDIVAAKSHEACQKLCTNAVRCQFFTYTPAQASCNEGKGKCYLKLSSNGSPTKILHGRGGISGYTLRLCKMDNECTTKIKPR
Sequence of Coagulation factor XI (P03951 388-625 limits assumed): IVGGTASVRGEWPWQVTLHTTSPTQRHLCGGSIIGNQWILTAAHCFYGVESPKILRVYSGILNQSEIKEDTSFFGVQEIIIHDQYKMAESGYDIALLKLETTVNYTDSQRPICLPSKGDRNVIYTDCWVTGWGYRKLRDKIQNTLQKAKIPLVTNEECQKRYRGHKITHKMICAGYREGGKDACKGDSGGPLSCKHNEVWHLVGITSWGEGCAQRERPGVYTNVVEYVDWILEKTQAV

Oryctolagus cuniculus [6] = assay: Antithrombotic activity in FeCl3-induced carotid arterial thrombosis male New Zealand white rabbits model assessed as reduction in wet thrombus weight at 2 mg/kg, iv preincubated for 30 mins followed by FeCl3 application for 5 mins and measured after 30 mins relative to control; assay type: functional; parameters: scale not given: the % may be the effect or the level left; settings: time 65 min, 1.083 h
Trypsin = Trypsin (Homo sapiens, UniProt P07477+P07478+P35030); assay: Inhibition of trypsin (unknown origin) using Bz-Ile-Glu(gamma-OR)-Gly-Arg-pNA.HCl as substrate incubated for 30 mins followed by substrate addition and measured after 60 mins by microplate reader analysis; assay type: protein assay
[7] = Acute toxicity in C57BL/6J mouse assessed as pathological changes in heart at 60 to 100 mg/kg, po administered as single dose for 14 days by H and E staining based analysis; assay type: organism-based; settings: in vivo, 336 h, dose 60-100 mg/kg, time 14 day
Mus musculus [8] = assay: Antithrombotic activity in po dosed FeCl3-induced carotid arterial thrombosis C57BL/6J mouse model assessed as increase in peak velocity measured after 0.5 hrs; assay type: functional, organism-based; settings: dose 5-30 mg/kg
[9] = Acute toxicity in C57BL/6J mouse assessed as effect on serum AST level at 60 to 100 mg/kg, po administered as single dose for 14 days; assay type: organism-based; settings: in vivo, 336 h, dose 60-100 mg/kg, time 14 day
[10] = target: Tissue-type plasminogen activator (Homo sapiens, UniProt P00750); assay: Inhibition of tPA (unknown origin) using H-D-Ile-Pro-Arg-pNA-2HCl as substrate incubated for 30 mins followed by substrate addition and measured after 60 mins by microplate reader analysis
Sequence of Tissue-type plasminogen activator (P00750 whole entry): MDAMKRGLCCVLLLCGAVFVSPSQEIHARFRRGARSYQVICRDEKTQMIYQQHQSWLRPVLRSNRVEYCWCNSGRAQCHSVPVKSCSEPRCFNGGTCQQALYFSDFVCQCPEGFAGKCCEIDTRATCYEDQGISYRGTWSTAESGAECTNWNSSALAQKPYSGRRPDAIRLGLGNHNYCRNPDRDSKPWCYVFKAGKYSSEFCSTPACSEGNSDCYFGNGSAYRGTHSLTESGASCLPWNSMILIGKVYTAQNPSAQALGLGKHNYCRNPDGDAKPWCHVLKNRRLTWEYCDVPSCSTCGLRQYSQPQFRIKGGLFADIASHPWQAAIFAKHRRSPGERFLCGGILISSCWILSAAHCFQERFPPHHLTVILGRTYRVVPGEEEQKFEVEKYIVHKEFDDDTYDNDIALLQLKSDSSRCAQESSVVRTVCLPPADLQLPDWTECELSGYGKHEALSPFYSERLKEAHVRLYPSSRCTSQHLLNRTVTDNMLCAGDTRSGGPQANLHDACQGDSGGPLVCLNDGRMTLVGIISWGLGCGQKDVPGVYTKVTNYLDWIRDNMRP

[11] = Acute toxicity in C57BL/6J mouse assessed as effect on liver weight at 60 to 100 mg/kg, po measured after 24 hrs; assay type: organism-based; settings: in vivo, dose 60-100 mg/kg
Prothrombin = Prothrombin (Homo sapiens, UniProt P00734); assay: Inhibition of thrombin (unknown origin) using H-D-Phe-Pip-Arg-pNA.2HCl as substrate incubated for 30 mins followed by substrate addition and measured after 60 mins by microplate reader analysis
[12] = Acute toxicity in C57BL/6J mouse assessed as effect on plasma ALP level at 60 to 100 mg/kg, po measured after 24 hrs; assay type: organism-based; settings: in vivo, dose 60-100 mg/kg
Oryctolagus cuniculus [13] = assay: Antithrombotic activity in FeCl3-induced carotid arterial thrombosis male New Zealand white rabbits model assessed as reduction in dry thrombus weight at 6 mg/kg, iv preincubated for 30 mins followed by FeCl3 application for 5 and measured after 45 mins relative to control; assay type: functional, organism-based; settings: time 80.0 min
Plasma = assay: Anticoagulant activity in citrated human plasma assessed as prolongation of prothrombin time incubated for 3 mins by PT reagent based automated coagulometric analysis; assay type: functional, cell-free
[14] = Selectivity index, ratio of IC50 for inhibition of FXIIa (unknown origin) using H-D-ProPhe-Arg-pNA.2HCl as substrate to IC50 for inhibition of human FXIa using p-Glu-Pro-Arg-pNA.HCl as substrate
[15] = Acute toxicity in C57BL/6J mouse assessed as effect on lung weight at 60 to 100 mg/kg, po measured after 24 hrs; assay type: organism-based; settings: in vivo, dose 60-100 mg/kg
Chymotrypsin = Chymotrypsin (Homo sapiens, UniProt Q99895+P17538+P40313+Q6GPI1); assay: Inhibition of chymotrypsin (unknown origin) using N-Suc-Ala-Ala-Pro-Phe-pNA as substrate incubated for 30 mins followed by substrate addition and measured after 60 mins by microplate reader analysis; assay type: protein assay
[16] = Selectivity index, ratio of IC50 for inhibition of tPA (unknown origin) using H-D-Ile-Pro-Arg-pNA-2HCl as substrate to IC50 for inhibition of human FXIa using p-Glu-Pro-Arg-pNA.HCl as substrate
[17] = Acute toxicity in C57BL/6J mouse assessed as allergic reactions at 60 to 100 mg/kg, po administered as single dose for 14 days; assay type: organism-based; settings: in vivo, 336 h, dose 60-100 mg/kg, time 14 day
[18] = Acute toxicity in C57BL/6J mouse assessed as effect on spleen weight at 60 to 100 mg/kg, po measured after 24 hrs; assay type: organism-based; settings: in vivo, dose 60-100 mg/kg
[19] = Toxicity in male New Zealand white rabbit assessed as prolongation of bleeding time at 2 to 6 mg/kg, iv by ear bleeding assay; assay type: organism-based, Oryctolagus cuniculus; settings: in vivo, dose 2-6 mg/kg
[20] = Selectivity index, ratio of IC50 for inhibition of FXa (unknown origin) using Z-D-Arg-Gly-Arg-pNA.2HCl as substrate to IC50 for inhibition of human FXIa using p-Glu-Pro-Arg-pNA.HCl as substrate
[21] = Acute toxicity in C57BL/6J mouse assessed as effect on serum ALT level at 60 to 100 mg/kg, po administered as single dose for 14 days; assay type: organism-based; settings: in vivo, 336 h, dose 60-100 mg/kg, time 14 day
[22] = Acute toxicity in C57BL/6J mouse assessed as pathological changes in kidney at 60 to 100 mg/kg, po administered as single dose for 14 days by H and E staining based analysis; assay type: organism-based; settings: in vivo, 336 h, dose 60-100 mg/kg, time 14 day

For `COc1cn(Cc2cc(-c3ccc(N)nc3F)ccn2)c(=O)cc1-c1cc(Cl)ccc1-n1cnnn1`, the inhibition (Mus musculus [1]) was “Active”, the Activity (HK-2) was “Non-toxic” and the Activity (Mus musculus [2]) was “Active; Pronounced Increase Observed Compared To Compound F”. The IC50 (Plasminogen) was over 1000 nM, the Activity [3] was “Non-toxic” and the Activity [4] was “Non-toxic”. The IC50 (Coagulation factor X) was over 1000 nM, the Activity [5] was “Non-toxic” and the IC50 (Coagulation factor XI) was 0.19 nM. For the same compound, the Activity (Oryctolagus cuniculus [6]) was over 50%, the IC50 (Trypsin) was over 1000 nM and the Activity [7] was “Non-toxic”. The Activity (Mus musculus [8]) was “Dose-dependent-effect”, the Activity [9] was “Non-toxic” and the IC50 [10] was over 1000 nM. For the same compound, the Activity [11] was “Non-toxic”, the IC50 (Prothrombin) was over 1000 nM and the Activity [12] was “Non-toxic”. For the same compound, the Activity (Oryctolagus cuniculus [13]) was “Active”, the Activity (Plasma) was “inactive” and the Ratio IC50 [14] was over 1000. For the same compound, the Activity [15] was “Non-toxic”, the IC50 (Chymotrypsin) was over 1000 nM and the Ratio IC50 [16] was over 1000. For the same compound, the Activity [17] was “Non-toxic”, the Activity [18] was “Non-toxic” and the Activity [19] was “Non-toxic”. The Ratio IC50 [20] was over 1000, the Activity [21] was “Non-toxic” and the Activity [22] was “Non-toxic”.
